The source made the active and inactive calls. No cut-off for these calls is given here.
Key:
[1] = system: BGC-823; experiment: Induction of apoptosis in human BGC-823 cells assessed as necrotic cells at 1 uM incubated for 48 hrs by Annexin V-FITC/PI staining based flow cytometric analysis ( Rvb = 1.79 %); assay type: functional
[2] = Acute toxicity in ip dosed ICR mouse assessed as lethal dose; assay type: organism-based; settings: in vivo
[3] = system: MCF7; experiment: Antiproliferative activity against human MCF7 cells assessed as inhibition of cell proliferation incubated for 48 hrs by MTT assay; assay type: functional, cell-based; settings: MCF7, 48 h
[4] = Acute toxicity in ip dosed ICR mouse assessed as mortality rate by measuring ratio at 1.80 logarithm of dose relative to total number of mouse; assay type: organism-based; settings: in vivo
[5] = system: MGC-803; experiment: Antiproliferative activity against human MGC-803 cells assessed as inhibition of cell proliferation incubated for 48 hrs by MTT assay; assay type: functional, cell-based; settings: MGC-803, 48 h
[6] = Acute toxicity in ip dosed ICR mouse assessed as mortality rate by measuring ratio at 2.16 logarithm of dose relative to total number of mouse; assay type: organism-based; settings: in vivo
[7] = system: BGC-823; experiment: Antitumor activity against human BGC-823 cells xenografted in BALB/c nude mouse assessed as tumor growth inhibition at 5 mg/kg, ip administered for 21 days relative to control; assay type: functional; settings: BGC-823, 504 h, time 21 day, read-out: TGI
[8] = Acute toxicity in ip dosed ICR mouse assessed as mortality rate by measuring ratio at 1.68 logarithm of dose relative to total number of mouse; assay type: organism-based; settings: in vivo
[9] = system: BGC-823; experiment: Induction of apoptosis in human BGC-823 cells assessed as late apoptotic cells at 1 uM incubated for 48 hrs by Annexin V-FITC/PI staining based flow cytometric analysis ( Rvb = 5.61 %); assay type: functional
[10] = system: BGC-823; experiment: Induction of ROS generation in human BGC-823 cells assessed as cells with green fluorescence at 1 uM incubated for 24 hrs by DCFH-DA staining based analysis relative to control; assay type: functional
[11] = Cytotoxicity against human L02 cells assessed as inhibition of cell proliferation incubated for 48 hrs by MTT assay; assay type: toxicity, cell-based
[12] = Acute toxicity in ip dosed ICR mouse assessed as mortality rate by measuring ratio at 1.91 logarithm of dose relative to total number of mouse; assay type: organism-based; settings: in vivo
[13] = system: HepG2; experiment: Antiproliferative activity against human HepG2 cells assessed as inhibition of cell proliferation incubated for 48 hrs by MTT assay; assay type: functional, cell-based; settings: HepG2, 48 h
[14] = Cytotoxicity against human GES1 cells assessed as inhibition of cell proliferation incubated for 48 hrs by MTT assay; assay type: toxicity, cell-based
[15] = system: SGC-7901; experiment: Antiproliferative activity against human SGC-7901 cells assessed as inhibition of cell proliferation incubated for 48 hrs by MTT assay; assay type: functional, cell-based; settings: SGC-7901, 48 h
[16] = Acute toxicity in ip dosed ICR mouse assessed as animal death at 1.57 logarithm of dose; assay type: organism-based; settings: in vivo
[17] = Cytotoxicity against human MCF-10A cells assessed as inhibition of cell proliferation incubated for 48 hrs by MTT assay; assay type: toxicity, cell-based
[18] = Acute toxicity in ip dosed ICR mouse assessed as animal death at 2.16 logarithm of dose; assay type: organism-based; settings: in vivo
[19] = Acute toxicity in ip dosed ICR mouse assessed as mortality rate by measuring ratio at 1.57 logarithm of dose relative to total number of mouse; assay type: organism-based; settings: in vivo
[20] = system: BGC-823; experiment: Induction of apoptosis in human BGC-823 cells assessed as viable cells at 1 uM incubated for 48 hrs by Annexin V-FITC/PI staining based flow cytometric analysis ( Rvb = 90.09 %); assay type: functional; settings: read-out: Activity
[21] = Binding affinity to DTT in PBS assessed as UV peak appearance at 288 nm at 360 uM by UV-Vis spectra analysis
[22] = system: BGC-823; experiment: Antiproliferative activity against human BGC-823 cells assessed as inhibition of cell proliferation incubated for 48 hrs by MTT assay; assay type: functional, cell-based; settings: BGC-823, 48 h
[23] = system: BGC-823; experiment: Induction of apoptosis in human BGC-823 cells assessed as early apoptotic cells at 1 uM incubated for 48 hrs by Annexin V-FITC/PI staining based flow cytometric analysis ( Rvb = 1.68 %); assay type: functional
[24] = system: NCI-N87; experiment: Antiproliferative activity against human NCI-N87 cells assessed as inhibition of cell proliferation incubated for 48 hrs by MTT assay; assay type: functional, cell-based; settings: NCI-N87, 48 h
[25] = system: BGC-823; experiment: Antiproliferative activity against human BGC-823 cells assessed as inhibition of cell proliferation preincubated with H2O2 for 2 hrs followed by compound addition and measured after 48 hrs by MTT assay; assay type: functional, cell-based
[26] = Selectivity index, ratio of IC50 for cytotoxicity against human GES1 cells to IC50 for antiproliferative activity against human BGC-823 cells in presence of H2O2; assay type: toxicity, cell-based; settings: GES1 cells and BGC-823 cells, read-out: Ratio IC50
[27] = Acute toxicity in ip dosed ICR mouse assessed as mortality rate by measuring ratio at 2.04 logarithm of dose relative to total number of mouse; assay type: organism-based; settings: in vivo
[28] = Acute toxicity in ip dosed ICR mouse assessed as animal death at 2.03 logarithm of dose; assay type: organism-based; settings: in vivo

Work on `COC(=O)[C@]12CCC(C)(C)C[C@H]1[C@H]1C(=O)C=C3[C@@]4(C)C=C(C#N)C(=O)C(C)(C)[C@@H]4CC[C@@]3(C)[C@]1(C)CC2` [BARDOXOLONE METHYL] yielded an Activity [1] of 7.6%, an LD50 [2] of 61.7 mg/kg and an IC50 [3] of 1.2 µM. It also gave a Ratio [4] of 0.6, an IC50 [5] of 0.9 µM and a Ratio [6] of 1. For the same compound, the inhibition in vivo at 5 mg/kg [7] was 51.7%, the Ratio [8] was 0.25 and the Activity [9] was 24.5%. It also gave an Activity [10] of 97.6%, an IC50 at 48 h [11] of 0.4 µM and a Ratio [12] of 0.67. The IC50 [13] was 0.5 µM, the IC50 at 48 h [14] was 0.4 µM and the IC50 [15] was 0.6 µM. The Activity [16] was “Non-Toxic”, the IC50 at 48 h [17] was 0.8 µM and the Activity [18] was “Toxic”. The Ratio [19] was 0, the viability at 1 µM [20] was 61.3% and the Activity [21] was “Active”. The IC50 [22] was 0.5 µM, the Activity [23] was 6.59% and the IC50 [24] was 0.8 µM. The IC50 [25] was 0.5 µM, the selectivity ratio [26] was 1 and the Ratio [27] was 0.83. For the same compound, the Activity [28] was “Toxic”.

From ChEMBL document CHEMBL5576127, “New CDDO Arylboronate Ester Derivatives with High Selectivity and Low Toxicity” (J Med Chem, 2024)
